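Where inhibition never reached the appropriate level, the endpoint shown equals the highest concentration tested. Otherwise, values were interpolated linearly from a five-concentration, 48-hour dose response in 96-well plates. Abbreviation: GI50, concentration required for 50% inhibition of growth. TGI denotes the concentration required for complete inhibition of growth.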
Legend:
Experiment in all cases: NCI-60 cell line screen, 48 h
786-0 renal = tested on: 786-0 renal
A498 renal = tested on: A498 renal
A549 NSCLC = tested on: A549 NSCLC
ACHN renal = tested on: ACHN renal
BT-549 breast = tested on: BT-549 breast
CAKI-1 renal = tested on: CAKI-1 renal
CCRF-CEM leukemia = tested on: CCRF-CEM leukemia
COLO 205 colon = tested on: COLO 205 colon
DU-145 prostate = tested on: DU-145 prostate
HCC-2998 colon = tested on: HCC-2998 colon
HCT-116 colon = tested on: HCT-116 colon
HCT-15 colon = tested on: HCT-15 colon
HL-60(TB) leukemia = tested on: HL-60(TB) leukemia
HOP-62 NSCLC = tested on: HOP-62 NSCLC
HS 578T breast = tested on: HS 578T breast
HT29 colon = tested on: HT29 colon
IGROV1 ovarian = tested on: IGROV1 ovarian
K-562 leukemia = tested on: K-562 leukemia
KM12 colon = tested on: KM12 colon
LOX IMVI melanoma = tested on: LOX IMVI melanoma
M14 melanoma = tested on: M14 melanoma
MALME-3M melanoma = tested on: MALME-3M melanoma
MCF7 breast = tested on: MCF7 breast
MDA-MB-231 breast = tested on: MDA-MB-231 breast
MDA-MB-435 = tested on: MDA-MB-435
MOLT-4 leukemia = tested on: MOLT-4 leukemia
NCI-H226 lung = tested on: NCI-H226 lung
NCI-H23 lung = tested on: NCI-H23 lung
NCI-H460 lung = tested on: NCI-H460 lung
NCI-H522 lung = tested on: NCI-H522 lung
NCI/ADR-RES ovarian = tested on: NCI/ADR-RES ovarian
OVCAR-3 ovarian = tested on: OVCAR-3 ovarian
OVCAR-4 ovarian = tested on: OVCAR-4 ovarian
OVCAR-5 ovarian = tested on: OVCAR-5 ovarian
OVCAR-8 ovarian = tested on: OVCAR-8 ovarian
PC-3 prostate = tested on: PC-3 prostate
RPMI-8226 leukemia = tested on: RPMI-8226 leukemia
RXF 393 renal = tested on: RXF 393 renal
SF-268 CNS = tested on: SF-268 CNS
SF-295 CNS = tested on: SF-295 CNS
SF-539 CNS = tested on: SF-539 CNS
SK-MEL-2 melanoma = tested on: SK-MEL-2 melanoma
SK-MEL-28 melanoma = tested on: SK-MEL-28 melanoma
SK-MEL-5 melanoma = tested on: SK-MEL-5 melanoma
SK-OV-3 ovarian = tested on: SK-OV-3 ovarian
SN12C renal = tested on: SN12C renal
SNB-19 CNS = tested on: SNB-19 CNS
SNB-75 CNS = tested on: SNB-75 CNS
SR leukemia = tested on: SR leukemia
SW-620 colon = tested on: SW-620 colon
T-47D breast = tested on: T-47D breast
TK-10 renal = tested on: TK-10 renal
U251 CNS = tested on: U251 CNS
UACC-257 melanoma = tested on: UACC-257 melanoma
UACC-62 melanoma = tested on: UACC-62 melanoma
UO-31 renal = tested on: UO-31 renal
EKVX NSCLC = tested on: EKVX NSCLC

## Cn1cc(C2=C(c3c(S(C)=O)n(C)c4ccccc34)C(=O)NC2=O)c2ccccc21 (stereo not given)
786-0 renal
  GI50: > 19.9 µM
  TGI: > 25 µM
A498 renal
  GI50: 4.03 µM
  TGI: > 20.5 µM
A549 NSCLC
  GI50: 9.24 µM
  TGI: > 25 µM
ACHN renal
  GI50: 8.83 µM
  TGI: > 25 µM
BT-549 breast
  GI50: 4.88 µM
  TGI: > 25 µM
CAKI-1 renal
  GI50: 6.04 µM
  TGI: > 25 µM
CCRF-CEM leukemia
  GI50: 7.19 µM
  TGI: > 25 µM
COLO 205 colon
  GI50: 5.96 µM
  TGI: > 18.6 µM
DU-145 prostate
  GI50: 8.9 µM
  TGI: > 25 µM
HCC-2998 colon
  GI50: 18.9 µM
  TGI: > 25 µM
HCT-116 colon
  GI50: 8.57 µM
  TGI: > 25 µM
HCT-15 colon
  GI50: 7.38 µM
  TGI: > 25 µM
HL-60(TB) leukemia
  GI50: 5.39 µM
  TGI: 17.7 µM
HOP-62 NSCLC
  GI50: 8.34 µM
  TGI: > 25 µM
HS 578T breast
  GI50: 5.57 µM
  TGI: 24.9 µM
HT29 colon
  GI50: 7.51 µM
  TGI: > 25 µM
IGROV1 ovarian
  GI50: 10.8 µM
  TGI: > 25 µM
K-562 leukemia
  GI50: 8.89 µM
  TGI: > 25 µM
KM12 colon
  GI50: 7.9 µM
  TGI: > 25 µM
LOX IMVI melanoma
  GI50: 13.7 µM
  TGI: > 25 µM
M14 melanoma
  GI50: 7.56 µM
  TGI: > 25 µM
MALME-3M melanoma
  GI50: > 25 µM
  TGI: > 25 µM
MCF7 breast
  GI50: 6.33 µM
  TGI: > 25 µM
MDA-MB-231 breast
  GI50: 12.9 µM
  TGI: > 25 µM
MDA-MB-435
  GI50: 2.68 µM
  TGI: 9.14 µM
MOLT-4 leukemia
  GI50: 9.4 µM
  TGI: > 25 µM
NCI-H226 lung
  GI50: 8.04 µM
  TGI: > 25 µM
NCI-H23 lung
  GI50: 9.79 µM
  TGI: > 25 µM
NCI-H460 lung
  GI50: 5.83 µM
  TGI: > 25 µM
NCI-H522 lung
  GI50: 4.47 µM
  TGI: > 23.4 µM
NCI/ADR-RES ovarian
  GI50: 9.19 µM
  TGI: > 25 µM
OVCAR-3 ovarian
  GI50: 6.31 µM
  TGI: 17.5 µM
OVCAR-4 ovarian
  GI50: 16.1 µM
  TGI: > 25 µM
OVCAR-5 ovarian
  GI50: > 25 µM
  TGI: > 25 µM
OVCAR-8 ovarian
  GI50: 12.3 µM
  TGI: > 25 µM
PC-3 prostate
  GI50: 8.19 µM
  TGI: > 25 µM
RPMI-8226 leukemia
  GI50: 12.7 µM
  TGI: > 25 µM
RXF 393 renal
  GI50: 5.42 µM
  TGI: > 20.7 µM
SF-268 CNS
  GI50: 11.7 µM
  TGI: > 25 µM
SF-295 CNS
  GI50: 5.93 µM
  TGI: > 17.2 µM
SF-539 CNS
  GI50: 6.35 µM
  TGI: > 20.1 µM
SK-MEL-2 melanoma
  GI50: 7.88 µM
  TGI: > 25 µM
SK-MEL-28 melanoma
  GI50: 19.1 µM
  TGI: > 25 µM
SK-MEL-5 melanoma
  GI50: 6.96 µM
  TGI: > 25 µM
SK-OV-3 ovarian
  GI50: 7.87 µM
  TGI: > 25 µM
SN12C renal
  GI50: 14 µM
  TGI: > 25 µM
SNB-19 CNS
  GI50: 25 µM
  TGI: > 25 µM
SNB-75 CNS
  GI50: 5.8 µM
  TGI: 22.3 µM
SR leukemia
  GI50: 2.55 µM
  TGI: 24.3 µM
SW-620 colon
  GI50: 7.78 µM
  TGI: > 25 µM
T-47D breast
  GI50: 8.35 µM
  TGI: > 25 µM
TK-10 renal
  GI50: 6.26 µM
  TGI: > 25 µM
U251 CNS
  GI50: 8.64 µM
  TGI: > 25 µM
UACC-257 melanoma
  GI50: > 25 µM
  TGI: > 25 µM
UACC-62 melanoma
  GI50: 14.2 µM
  TGI: > 25 µM
UO-31 renal
  GI50: 3.89 µM
  TGI: > 25 µM

## COc1ccc2c(c1)N(CCO)C1=C(C(=O)OC1)C2c1ccc(OC)c(OC)c1 (stereo not given)
786-0 renal
  GI50: 3.98 µM
  TGI: > 100 µM
A498 renal
  GI50: 1.56 µM
  TGI: 5.93 µM
A549 NSCLC
  GI50: 3.86 µM
  TGI: > 100 µM
ACHN renal
  GI50: 6.3 µM
  TGI: > 100 µM
BT-549 breast
  GI50: 2.98 µM
  TGI: 9.74 µM
CAKI-1 renal
  GI50: 3.05 µM
  TGI: > 100 µM
CCRF-CEM leukemia
  GI50: 3.99 µM
  TGI: > 100 µM
COLO 205 colon
  GI50: 2.53 µM
  TGI: 5.93 µM
DU-145 prostate
  GI50: 3.01 µM
  TGI: 9.38 µM
EKVX NSCLC
  GI50: 6.52 µM
  TGI: > 100 µM
HCC-2998 colon
  GI50: 2.61 µM
  TGI: > 100 µM
HCT-116 colon
  GI50: 2.64 µM
  TGI: 15.3 µM
HCT-15 colon
  GI50: 3.09 µM
  TGI: > 100 µM
HL-60(TB) leukemia
  GI50: 2.04 µM
  TGI: 5.51 µM
HOP-62 NSCLC
  GI50: 4.89 µM
  TGI: > 100 µM
HS 578T breast
  GI50: 2.88 µM
  TGI: 9.82 µM
HT29 colon
  GI50: 2.73 µM
  TGI: 7.51 µM
IGROV1 ovarian
  GI50: 3.46 µM
  TGI: > 100 µM
K-562 leukemia
  GI50: 1.26 µM
  TGI: > 100 µM
KM12 colon
  GI50: 1.43 µM
  TGI: 14.7 µM
LOX IMVI melanoma
  GI50: 4.89 µM
  TGI: > 100 µM
M14 melanoma
  GI50: 2.44 µM
  TGI: > 100 µM
MCF7 breast
  GI50: 2.67 µM
  TGI: > 100 µM
MDA-MB-231 breast
  GI50: 3.63 µM
  TGI: 10.7 µM
MDA-MB-435
  GI50: 0.407 µM
  TGI: 2.13 µM
MOLT-4 leukemia
  GI50: 4.75 µM
  TGI: > 100 µM
NCI-H226 lung
  GI50: 2.29 µM
  TGI: 9.55 µM
NCI-H23 lung
  GI50: 3.39 µM
  TGI: > 100 µM
NCI-H460 lung
  GI50: 3.09 µM
  TGI: 12.6 µM
NCI-H522 lung
  GI50: 1.48 µM
  TGI: 5.25 µM
NCI/ADR-RES ovarian
  GI50: 4.38 µM
  TGI: 45.1 µM
OVCAR-3 ovarian
  GI50: 1.92 µM
  TGI: 4.24 µM
OVCAR-4 ovarian
  GI50: 4.77 µM
  TGI: > 100 µM
OVCAR-5 ovarian
  GI50: 5.76 µM
  TGI: > 100 µM
OVCAR-8 ovarian
  GI50: 3.34 µM
  TGI: > 100 µM
PC-3 prostate
  GI50: 3.03 µM
  TGI: > 100 µM
RPMI-8226 leukemia
  GI50: 3.78 µM
  TGI: > 100 µM
SF-268 CNS
  GI50: 4.5 µM
  TGI: > 100 µM
SF-295 CNS
  GI50: 2.43 µM
  TGI: > 100 µM
SK-MEL-2 melanoma
  GI50: 2.66 µM
  TGI: 11.3 µM
SK-MEL-28 melanoma
  GI50: 3.33 µM
  TGI: > 100 µM
SK-MEL-5 melanoma
  GI50: 2.63 µM
  TGI: 15.5 µM
SK-OV-3 ovarian
  GI50: 4.13 µM
  TGI: > 100 µM
SN12C renal
  GI50: 5.8 µM
  TGI: > 100 µM
SNB-19 CNS
  GI50: 4.54 µM
  TGI: > 100 µM
SNB-75 CNS
  GI50: 2.7 µM
  TGI: > 100 µM
SR leukemia
  GI50: 3.68 µM
  TGI: > 100 µM
SW-620 colon
  GI50: 3.21 µM
  TGI: > 100 µM
T-47D breast
  GI50: > 100 µM
  TGI: > 100 µM
TK-10 renal
  GI50: 4.19 µM
  TGI: > 100 µM
U251 CNS
  GI50: 2.97 µM
  TGI: > 100 µM
UACC-257 melanoma
  GI50: 3.38 µM
  TGI: > 100 µM
UACC-62 melanoma
  GI50: 2.13 µM
  TGI: > 100 µM
UO-31 renal
  GI50: 4.65 µM
  TGI: > 100 µM
